Tests used:
[1] = Stability of indirubin prodrugs in simulated fluids (FaSSIF, FaSSGF), 24 h at 37° C., UPLC-MS; type: physicochemical
Experimental: (§1) 10.41 g fasted state simulated intestinal fluid (FaSSIF) buffer concentrate was dissolved in 240.3 g deionized water and 560 mg FaSSIF powder added. The mixture was stirred until complete dissolution observed. The test compound (approx. 1-3 mg) was placed in 5.00 mL of FaSSIF solution. Samples of the solution with the test compound were taken after 24 hours in at 37° C. (oven-controlled temperature).
as §1, with “36.78” for “10.41”, “gastric” for “intestinal”, “(FaSSGF)” for “(FaSSIF)”, “961.9” for “240.3”, “60” for “560”, “FaSSGF” for “FaSSIF”
UPLC-MS analysis of the samples taken at 24 hours was carried out on a Waters Acquity UPLC system consisting of an Acquity I-Class Sample Manager-FL, Acquity I-Class Binary Solvent Manager and an Acquity UPLC Column Manager. UV detection was afforded using an Acquity UPLC PDA detector (scanning from 210 to 400 nm), whilst mass detection was achieved using an Acquity QDa detector (mass scanning from 100-1250 Da; positive and negative modes simultaneously), and ELS detection was achieved using an Acquity UPLC ELS Detector. A Waters Acquity UPLC BEH C18 column (2.1 Å˜50 mm, […]) was used to separate the analytes. Samples were prepared by dissolution (with or without sonication) into 1 mL of 50% (v/v) MeCN in water. The resulting solutions were then filtered through a […] syringe filter before submitting for analysis. All of the solvents, including formic acid and 36% ammonia solution, were purchased as the HPLC grade.

[2] = Time course of conversion to indirubin in FaSSIF at 37° C.;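 for all read-outs here: test compound, about 1-3 mg in 5 mL FaSSIF, sampled and analysed by UPLC-MS with PDA UV (210-400 nm), QDa mass and evaporative light scattering detection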; type: physicochemical; settings: for Conversion to indirubin: over a 24 hour period

Fraction (percent) of indirubin ([1]; FaSSGF 37° C. 24 h) [%]	Fraction (percent) of starting material (SM) ([1]; FaSSGF 37° C. 24 h) [%]	Fraction (percent) of indirubin ([1]; FaSSIF 37° C. 24 h) [%]	Fraction (percent) of starting material (SM) ([1]; FaSSIF 37° C. 24 h) [%]	indirubin ([2]; FaSSIF 37° C. 24 h) [%]	indirubin methylene alcohol ([2]; FaSSIF 37° C. 24 h) [%]	starting material (prodrug compound) ([2]; FaSSIF 37° C. 24 h) [%]	indirubin ([2]; FaSSIF 37° C., 15 min) [%]	indirubin methylene alcohol ([2]; FaSSIF 37° C., 15 min) [%]	starting material (prodrug compound) ([2]; FaSSIF 37° C., 15 min) [%]	indirubin ([2]; FaSSIF 37° C., 30 min) [%]	indirubin methylene alcohol ([2]; FaSSIF 37° C., 30 min) [%]	starting material (prodrug compound) ([2]; FaSSIF 37° C., 30 min) [%]	indirubin ([2]; FaSSIF 37° C., 1 h) [%]	indirubin methylene alcohol ([2]; FaSSIF 37° C., 1 h) [%]	starting material (prodrug compound) ([2]; FaSSIF 37° C., 1 h) [%]	indirubin ([2]; FaSSIF 37° C., 2 h) [%]	indirubin methylene alcohol ([2]; FaSSIF 37° C., 2 h) [%]	starting material (prodrug compound) ([2]; FaSSIF 37° C., 2 h) [%]	Conversion to indirubin ([2]; FaSSIF 37° C.)	SMILES
–	–	100	0	–	–	–	–	–	–	–	–	–	–	–	–	–	–	–	–	O=C1/C(=C2/C(=O)N(COS(=O)(=O)O)c3ccccc32)Nc2ccccc21 [drawing 224]
–	–	–	–	40	0	52	45	0	54	29	0	39	18	0	37	49	0	51	20-40%	O=C1/C(=C2/C(=O)N(CN3CCC(F)(F)CC3)c3ccccc32)Nc2ccccc21 [drawing 260]
–	–	–	–	–	–	–	–	–	–	–	–	–	–	–	–	–	–	–	80-100%	O=C1/C(=C2/C(=O)N(CN3CCCCC3)c3ccccc32)Nc2ccccc21 [drawing 254]
–	–	–	–	100	0	0	100	0	0	100	0	0	100	0	0	100	0	0	80-100%	CCN(CC)CN1C(=O)/C(=C2\Nc3ccccc3C2=O)c2ccccc21 [drawing 252]
–	–	–	–	6	0	55	8	0	50	5	0	44	5	0	33	10	1	50	0-20%	O=C1/C(=C2/C(=O)N(C(=O)NC3CCOCC3)c3ccccc32)Nc2ccccc21 [drawing 263]
–	–	–	–	74	4	0	78	13	6	78	13	6	78	13	6	83	10	4	60-80%	CN(C)CCN(CCN(C)C)CN1C(=O)/C(=C2\Nc3ccccc3C2=O)c2ccccc21 [drawing 257]
–	–	–	–	20	7	62	9	5	72	8	5	79	10	5	80	13	4	75	0-20%	O=C1/C(=C2/C(=O)N(CN3CCC3)c3ccccc32)Nc2ccccc21 [drawing 266]
–	–	–	–	37	14	10	8	12	31	12	14	37	12	12	30	21	10	29	40-60%	CC(=O)N1CCN(CN2C(=O)/C(=C3\Nc4ccccc4C3=O)c3ccccc32)CC1 [drawing 258]

Continued, compound first:

SMILES	Fraction (percent) of indirubin ([1]; FaSSGF 37° C. 24 h) [%]	Fraction (percent) of starting material (SM) ([1]; FaSSGF 37° C. 24 h) [%]	Fraction (percent) of indirubin ([1]; FaSSIF 37° C. 24 h) [%]	Fraction (percent) of starting material (SM) ([1]; FaSSIF 37° C. 24 h) [%]	indirubin ([2]; FaSSIF 37° C. 24 h) [%]	indirubin methylene alcohol ([2]; FaSSIF 37° C. 24 h) [%]	starting material (prodrug compound) ([2]; FaSSIF 37° C. 24 h) [%]	indirubin ([2]; FaSSIF 37° C., 15 min) [%]	indirubin methylene alcohol ([2]; FaSSIF 37° C., 15 min) [%]	starting material (prodrug compound) ([2]; FaSSIF 37° C., 15 min) [%]	indirubin ([2]; FaSSIF 37° C., 30 min) [%]	indirubin methylene alcohol ([2]; FaSSIF 37° C., 30 min) [%]	starting material (prodrug compound) ([2]; FaSSIF 37° C., 30 min) [%]	indirubin ([2]; FaSSIF 37° C., 1 h) [%]	indirubin methylene alcohol ([2]; FaSSIF 37° C., 1 h) [%]	starting material (prodrug compound) ([2]; FaSSIF 37° C., 1 h) [%]	indirubin ([2]; FaSSIF 37° C., 2 h) [%]	indirubin methylene alcohol ([2]; FaSSIF 37° C., 2 h) [%]	starting material (prodrug compound) ([2]; FaSSIF 37° C., 2 h) [%]	Conversion to indirubin ([2]; FaSSIF 37° C.)
CC(=O)NCCNC(=O)N1C(=O)/C(=C2\Nc3ccccc3C2=O)c2ccccc21	0	100	0	100	–	–	–	–	–	–	–	–	–	–	–	–	–	–	–	–
COCN1C(=O)/C(=C2\Nc3ccccc3C2=O)c2ccccc21	2	100	2	91	–	–	–	–	–	–	–	–	–	–	–	–	–	–	–	–
O=C1Nc2ccccc2/C1=C1/Nc2ccccc2/C1=N\O	0	100	0	100	–	–	–	–	–	–	–	–	–	–	–	–	–	–	–	–
CCCCCCCCCCC(=O)N1C(=O)/C(=C2\Nc3ccccc3C2=O)c2ccccc21	0	100	0	100	–	–	–	–	–	–	–	–	–	–	–	–	–	–	–	–
O=C1/C(=C2/C(=O)N(CO)c3ccccc32)Nc2ccccc21 [drawing 259]	–	–	–	–	17	–	73	12	–	81	15	–	82	14	–	80	17	–	79	20-40%
